The test system of data set [1] is Mus musculus. Kind of data set: Antidepressant activity in Kunming mouse chronic unpredictable mild stress model assessed as increase in sucrose preference at 20 mg/kg, IG measured after 1 to 3 weeks. The data set is classed as functional, organism-based. The note with it: time 1-3 weeks.
For data set [2], the system named is Rattus norvegicus. The data set is described as follows: Antidepressant activity against ACTH-induced treatment resistant depression in Sprague-Dawley rat model assessed as reduction in immobility time at 30 mg/kg, ip by forced swimming test. It is filed as functional, organism-based.
A short description of data set [3]: In vivo inhibition of 5-HT2A in po dosed DOI-induced Kunming mouse assessed as reduction in head twitch response pretreated for 60 mins followed by DOI induction and measured for 20 mins. It is filed as functional. The note with it: 1.333 h, time 80 min.
The target in data set [4] is T1, 5-hydroxytryptamine receptor 2C (Rattus norvegicus, UniProt P08909).
T1 sequence (P08909 whole entry): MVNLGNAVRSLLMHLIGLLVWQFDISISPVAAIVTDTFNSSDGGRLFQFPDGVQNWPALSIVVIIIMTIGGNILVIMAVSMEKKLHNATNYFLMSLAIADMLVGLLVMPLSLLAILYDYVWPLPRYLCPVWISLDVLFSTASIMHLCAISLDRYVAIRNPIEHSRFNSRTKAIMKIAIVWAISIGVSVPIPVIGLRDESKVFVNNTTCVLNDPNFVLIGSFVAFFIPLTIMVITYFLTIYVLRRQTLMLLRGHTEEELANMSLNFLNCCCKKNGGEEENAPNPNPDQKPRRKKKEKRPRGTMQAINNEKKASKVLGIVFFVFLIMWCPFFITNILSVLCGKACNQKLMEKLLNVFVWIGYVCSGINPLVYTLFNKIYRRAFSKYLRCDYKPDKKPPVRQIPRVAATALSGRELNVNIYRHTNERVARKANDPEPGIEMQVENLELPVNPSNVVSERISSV
The data set is described as follows: Displacement of [3H]-mesulergine from 5-HT2C in rat cerebral cortex incubated for 15 mins by liquid scintillation counting method. The data set is classed as tissue-based.

For data set [5], the system named is Mus musculus. The data set is described as follows: Antidepressant activity in IG dosed Kunming mouse assessed as decrease in immobility time by measuring minimal effective dose by forced swimming test. The data set is classed as functional.
For data set [6], the target named is 5-hydroxytryptamine receptor 2A (Rattus norvegicus, UniProt P14842). The data set is described as follows: Displacement of [3H]-ketanserin from 5-HT2A in rat cerebral cortex incubated for 15 mins by liquid scintillation counting method. It is filed as tissue-based.
5-hydroxytryptamine receptor 2A, sequence (P14842 whole entry): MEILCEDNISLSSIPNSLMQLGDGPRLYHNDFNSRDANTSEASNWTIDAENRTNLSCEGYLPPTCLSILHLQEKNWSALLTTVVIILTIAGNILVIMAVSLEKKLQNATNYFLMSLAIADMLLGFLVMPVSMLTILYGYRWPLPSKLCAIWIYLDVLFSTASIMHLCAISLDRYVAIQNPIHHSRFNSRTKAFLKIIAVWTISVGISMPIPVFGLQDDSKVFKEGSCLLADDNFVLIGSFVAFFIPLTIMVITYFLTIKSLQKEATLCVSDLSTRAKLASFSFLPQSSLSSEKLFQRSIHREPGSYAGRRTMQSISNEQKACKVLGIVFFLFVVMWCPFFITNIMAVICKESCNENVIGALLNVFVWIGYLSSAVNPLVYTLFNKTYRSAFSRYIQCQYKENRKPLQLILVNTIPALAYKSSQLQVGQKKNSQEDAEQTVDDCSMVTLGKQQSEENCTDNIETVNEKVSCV
The test system of data set [7] is Mus musculus. Kind of data set: Antidepressant activity in IG dosed Kunming mouse assessed as decrease in immobility time by measuring minimal effective dose by tail suspension test. It is filed as functional.
The target in data set [8] is T2, Alpha-1A adrenergic receptor (Rattus norvegicus, UniProt P43140).
T2 sequence (P43140 whole entry): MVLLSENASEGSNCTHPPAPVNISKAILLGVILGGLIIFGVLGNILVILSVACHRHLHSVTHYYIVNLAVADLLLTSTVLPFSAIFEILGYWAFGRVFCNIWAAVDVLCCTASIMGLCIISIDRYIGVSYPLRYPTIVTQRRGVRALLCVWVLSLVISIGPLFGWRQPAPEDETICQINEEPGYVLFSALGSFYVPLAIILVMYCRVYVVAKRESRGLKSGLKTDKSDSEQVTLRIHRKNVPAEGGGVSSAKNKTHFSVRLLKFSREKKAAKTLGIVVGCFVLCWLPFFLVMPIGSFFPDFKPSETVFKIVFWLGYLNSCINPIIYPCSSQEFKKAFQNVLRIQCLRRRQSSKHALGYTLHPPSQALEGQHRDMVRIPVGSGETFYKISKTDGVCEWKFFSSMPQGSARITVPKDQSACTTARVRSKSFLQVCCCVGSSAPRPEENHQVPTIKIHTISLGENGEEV
The data set is described as follows: Displacement of [3H]-prazosin from adrenergic alpha-1 receptor in rat cerebral cortex incubated for 60 mins by liquid scintillation counting method. It is filed as toxicity, tissue-based.

Data set [9] deals with histamine H1 receptor. Kind of data set: Displacement of [3H]-pyrilamine from H1 receptor in guinea pig cerebellum membrane incubated for 60 mins by liquid scintillation counting method. The data set is classed as toxicity, cell membranes, Cavia porcellus. The note with it: probe [3H]-pyrilamine.
Data set [10] is described as follows: Acute toxicity in po dosed Sprague-Dawley rat assessed as mortality rate measured after 24 hrs. The data set is classed as organism-based. The note with it: in vivo.
The target of data set [11] is Transporter (Rattus norvegicus, UniProt Q63380). Kind of data set: Binding affinity to rat NET.
Transporter, sequence (Q63380 whole entry): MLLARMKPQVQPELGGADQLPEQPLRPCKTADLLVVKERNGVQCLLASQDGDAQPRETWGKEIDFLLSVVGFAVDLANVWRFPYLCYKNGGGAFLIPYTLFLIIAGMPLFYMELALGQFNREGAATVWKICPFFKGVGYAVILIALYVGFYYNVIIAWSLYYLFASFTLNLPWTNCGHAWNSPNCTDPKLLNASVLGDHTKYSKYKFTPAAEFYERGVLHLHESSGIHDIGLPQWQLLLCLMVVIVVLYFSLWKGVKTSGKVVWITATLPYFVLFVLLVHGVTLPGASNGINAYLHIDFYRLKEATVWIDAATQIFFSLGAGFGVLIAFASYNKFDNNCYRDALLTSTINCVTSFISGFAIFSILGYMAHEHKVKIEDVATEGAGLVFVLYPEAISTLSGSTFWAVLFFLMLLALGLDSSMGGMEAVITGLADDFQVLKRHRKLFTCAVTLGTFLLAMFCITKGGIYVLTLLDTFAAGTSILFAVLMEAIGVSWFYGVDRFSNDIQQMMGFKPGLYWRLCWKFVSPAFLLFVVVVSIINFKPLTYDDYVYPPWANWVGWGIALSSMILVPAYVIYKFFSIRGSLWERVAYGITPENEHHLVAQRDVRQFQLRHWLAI

Activity calls are given as the source filed them. The rule behind the calls is not given here.

Turning to `CNCCC(Oc1ccc(C(F)(F)F)cc1)c1ccccc1` (stereo not drawn), the outcome in data set [1] was inactive.
`Fc1ccc([C@@H]2CCNC[C@H]2COc2ccc3c(c2)OCO3)cc1`: the result in [2] was inactive.
With `CNCC[C@H](Oc1cccc2ccccc12)c1cccs1` [DULOXETINE], the ED50 in data set [3] worked out at 30.9 mg/kg. Further, the Ki in [4] amounted to 2470 nM; in [6] it was 1240 nM; in [8], 1010 nM. Also, the Activity result in data set [5] and in [7] was “Dose-dependent-effect” each time. The minimal effective dose in data set [5] (po, read-out: MED) worked out at 16 mg/kg; in [7] (po, read-out: MED), 16 mg/kg. In data set [9], this molecule had a Ki at 60 min of 1270 nM. Besides, the LD50 at 24 h in data set [10] came to 279 mg/kg.
The molecule `CCc1nn(CCCN2CCN(c3cccc(Cl)c3)CC2)c(=O)n1CCOc1ccccc1` [NEFAZODONE] yielded a Ki in data set [11] of 555 nM.

These data come from ChEMBL document CHEMBL6083240, “Design, synthesis and biological evaluation of arylpropylamine derivatives as potential multi-target antidepressants” (Bioorg Med Chem, 2024).
